Test systems include MDA-MB-435; CAKI-1 renal; CCRF-CEM leukemia; TK-10 renal; HL-60(TB) leukemia; SNB-19 CNS; SK-MEL-28 melanoma; A498 renal; OVCAR-4 ovarian; OVCAR-8 ovarian.
Common to all, as to test: DTP human tumour cell line panel, 48 h

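Growth conditions: 96-well plates. Treatment: test compound, 48 hours, 5 concentrations. Analysis: linear interpolation between bracketing concentrations; unreached endpoints set to highest concentration. GI50 = concentration required for 50% inhibition of growth. The concentration for full growth arrest is given as TGI.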

As for `NC(CSC(c1ccccc1)(c1ccccc1)c1ccc(Cl)cc1)C(=O)O` (centres undefined), the concentration for 50% growth inhibition (GI50) was 0.0344 µM in the assay with MDA-MB-435; 0.37 µM with CAKI-1 renal; 0.386 µM in the assay on CCRF-CEM leukemia; 13.5 µM in the assay on TK-10 renal; 0.24 µM with HL-60(TB) leukemia; 0.569 µM with SNB-19 CNS. Further, the GI50 with SK-MEL-28 melanoma is 2.46 µM; with A498 renal, 0.746 µM; in the assay with OVCAR-4 ovarian it was 11.1 µM; in the assay on OVCAR-8 ovarian, 0.412 µM. Moreover, the TGI was 0.158 µM in the assay with MDA-MB-435; 40 µM with CCRF-CEM leukemia; 64.7 µM in the assay on TK-10 renal; 0.724 µM in the assay on HL-60(TB) leukemia; 33.2 µM with SNB-19 CNS; 44.3 µM in the assay with SK-MEL-28 melanoma. Further, the TGI is 48.8 µM in the assay on A498 renal, > 100 µM in the assay on OVCAR-4 ovarian and 44.8 µM in the assay with OVCAR-8 ovarian.
For `COc1ccccc1-n1c(-c2cc(O)ccc2C)cn2c3c(=O)[nH]c(=O)n(C)c3nc12`, the GI50 in the assay with MDA-MB-435 was > 100 µM; in the assay on CAKI-1 renal, 2.95 µM; in the assay with CCRF-CEM leukemia it was > 100 µM; in the assay on TK-10 renal it was 13.3 µM; with HL-60(TB) leukemia it was > 100 µM; in the assay on SNB-19 CNS it was > 100 µM. In addition, the GI50 with SK-MEL-28 melanoma was > 100 µM; in the assay with A498 renal, 25 µM; with OVCAR-4 ovarian, > 100 µM; in the assay with OVCAR-8 ovarian, 10.9 µM. For the same compound, the TGI is > 100 µM in the assay with MDA-MB-435; 7.05 µM with CAKI-1 renal; > 100 µM in the assay with CCRF-CEM leukemia; 48.7 µM in the assay on TK-10 renal; > 100 µM in the assay with HL-60(TB) leukemia; > 100 µM in the assay with SNB-19 CNS. In addition, the concentration for total growth inhibition (TGI) in the assay on SK-MEL-28 melanoma, in the assay with A498 renal, in the assay with OVCAR-4 ovarian and with OVCAR-8 ovarian was > 100 µM in each case.

Source of the values: PubChem BioAssay (NCI).
